Measured values taken from patent publication US9029346B1, “Irreversible inhibitors of DNA polymerase beta” (The Johns Hopkins University, priority 2013, dated 2015).

Key:
Pol β = Pol β (Homo sapiens, UniProt P06746); format: biochemical
Procedure: It is worth noting that the well should be full to obtain accurate fluorescence data (approximately 380 μL). […] To determine the polymerase activity in the presence of each inhibitor, a solution of 13 (3.8 μL, 5 μM) and dTTP (3.8 μL, 10 mM) were also added (to make final [13]=50 nM and 100 μM of dTTP). The plates were immediately placed in the microtiter plate reader and the measurements were recorded.
It is worth noting that the well should be full in order to get accurate fluorescence data (approximately 380 μL). The solutions of inhibitors (40×) in acetonitrile obtained after pentenyl deprotection (10 μL) were transferred to the wells containing Pol β and incubated for 20 min. To determine the polymerase activity of enzyme in the presence of each inhibitor, solutions of ternary complex 13 (3.8 μL, 5 μM) and dTTP (3.8 μL, 10 mM) were also added (to make final 50 nM of 13 and 100 μM of dTTP). The plates were placed immediately in the microtiter plate reader Cary Eclipse Varian and the measurements started.
The inhibitor solution (40×, 10 μL) was added to the first well and preincubated for 20 min. At this time, the same portion of inhibitor was added to the second well. […] Once the inhibitor was added to the fifth well, solutions of ternary complex 13 (3.8 pit, 5 μM) and dTTP (3.8 μL, 10 mM) were also added and the fluorescence measurement was started immediately.

[1] = test system: Klenow fragment of DNA polymerase 1; test: Klenow exo- strand displacement synthesis fluorescence assay (selectivity); format: biochemical, E. coli; conditions: 10 μM, same conditions as Pol β, FIG. 9
Procedure: […]. The volume of the solution in each well is approximately 400 μL. Pol β (final concentration, 10 nM) or Klenow exo-(final concentration 5 nM) is added and the measurement of the fluorescence is started immediately.
More than one dozen polymerases exist in a human cell. Because there is not access to each of these, the Klenow fragment of DNA polymerase 1 from E. coli was used as a primitive test of the inhibitor's (3a) selectivity. […]. However, the efficacy of the 1,4-dicarbonyl containing inhibitor (1a) was compromised by thiols, presumably due to nucleophilic addition (FIG. 10). […]

[2] = test system: DU145 prostate cancer cells; format: cell-based; conditions: for DU145 cells surviving treatment: 40 μM, FIG. 13A
Procedure: DU 145 cells were obtained from the American Type Culture Collection (ATCC, HTB-81, Manassas, Va.) and maintained in RPMI 1640 culture medium (Sigma-Aldrich R8758, St. Louis, Mo.), supplemented with 10% fetal bovine serum (Sigma-Aldrich F6178, St. Louis, Mo.). Cultures were grown at 37° C. in a humidified atmosphere of 5% carbon dioxide without any antibiotics and subcultured when they reached confluence. For clonogenic survival analysis, the appropriate number of cells were grown in standard 6-well tissue culture dishes in the growth media (2 mL per well). After 2 days, the cells were treated with Pol β inhibitors (3a or 18) by addition of sterile stock solution in water directly to the growth media to the desired final concentrations. Cells were treated similarly with methyl methanesulfonate (MMS, Sigma-Aldrich, St. Louis, Mo.). For combined treatments, 18 was added to the cells first followed by MMS. The compounds remained present throughout the entire assay. Two weeks after the treatment, the cells were fixed and stained with 0.2% solution of crystal violet in 50% methanol. Colonies with ≧50 cells were then counted. All treatments were carried out in triplicate.
[…]. Consequently, DU145 cell survival was measured as a function of MMS concentration, without and with 18 at a concentration (20 μM) where the proinhibitor itself results in approximately 45% cell death. […] […].

[3] = test system: DU145 lysate lyase activity; test: Lyase activity of DU145 cell extracts (lysates) on 3′-32P-15
Procedure: The aliquots were kept on ice for 1 h before mixing with loading buffer (5 μL). The samples were analyzed by 20% denaturing PAGE and quantified using a phosphorimager.
Cells were harvested by mild trypsinzation. The cells were then washed three times with phosphate buffered saline. Cell pellets were suspended in 1× Passive Lysis Buffer (PBL, Promega Corporation, E1941, Madison, Wis.) at concentration of 1×10^7 cells per mL and frozen in aliquots at −80° C. Protein concentrations were determined by Bio-Rad protein assay dye (Bio-Rad, 500-0006, Hercules, Calif.) according to the manufacturer's protocol and using bovine serum albumin as a standard.

Pol β lyase activity = Pol β lyase activity (Homo sapiens, UniProt P06746); test: Pol β lyase (dRPase) activity on 3′-32P-15 by gel electrophoresis
Procedure: The ability of 1a to inhibit Pol β's dRPase activity was examined using 3′-^32P-15 in which the oligonucleotide containing dRP was labeled.
The DNA substrate was added to the reaction following preincubation of 1a with Pol β and subsequent 100-fold dilution. The lyase reaction was monitored by gel electrophoresis.

[4] = test system: mouse embryonic fibroblast cell lysates lyase activity; test: Lyase (dRPase) activity of mouse embryonic fibroblast lysates on 3′-32P-15; format: biochemical; conditions: for Rate of product formation: inhibitor + (18, 50 μM), 32 μg protein
[5] = Conversion of bisacetate proinhibitor to 3a in DU145 lysate (TLC analysis); format: in vitro ADME

COc1cc(Cl)c(/C=N/OC2C[C@H](n3cc(C)c(=O)[nH]c3=O)O[C@@H]2COP(=O)(OC)OCC2CC(O)OC2O)c(Cl)c1O (stereo partly shown) [2a]
effect on Pol β activity in strand displacement assay (Pol β): comparable inhibition activity as 1a

COc1cc(Cl)c(/C=N/OC2C[C@H](n3cc(C)c(=O)[nH]c3=O)O[C@@H]2COP(=O)(O)OCC2CC(O)OC2O)c(Cl)c1O (stereo partly shown) [3a]
effect on Klenow fragment's activity [1]: no effect | DU145 cells surviving treatment [2]: 12% | lyase activity remaining ([3]; 150 μM): more than 30%

COc1cc(Cl)c(/C=N/OC2C[C@H](n3cc(C)c(=O)[nH]c3=O)O[C@@H]2COP(=O)(OC)OCCC=O)c(Cl)c1O (stereo partly shown) [compound 16]
effect on Pol β lyase activity (Pol β lyase activity): had no effect

COc1cc(Cl)c(/C=N/OC2C[C@H](n3cc(C)c(=O)[nH]c3=O)O[C@@H]2COP(=O)(O)OCC2CC(OC(C)=O)OC2OC(C)=O)c(Cl)c1O (stereo partly shown) [compound 18]
Rate of product formation ([4]; Pol β - lysate): 5.5 ± 1.5 ×10^−1 % · min^−1 | Rate of product formation ([4]; Pol β wt lysate): 9.2 ± 2.4 ×10^−1 % · min^−1 | reduction of lyase activity ([4]; Pol β- cell lysates, 18 at 50 μM): less than 30% | Rate of product formation ([4]; Pol β/λ - lysate): 11.0 ± 4.0 ×10^−1 % · min^−1 | Rate of product formation ([4]; Pol λ - lysate): 9.1 ± 2.3 ×10^−1 % · min^−1 | Rate of product formation ([4]; Pol λ wt lysate, aliquots at 2, 5, 10 min): 12.4 ± 3.2 ×10^−1 % · min^−1 | effect on lyase activity versus wild type cells ([4]; cells lacking Pol λ (Pol λ-), p=0.05): statistically indistinguishable | effect on lyase activity versus Pol β- cells ([4]; double knock-out (Pol β-/Pol λ-) cells): within experimental error | reduction of the rate of the lyase reaction ([4]; lysates from wild type cells, 18 at 50 μM): ~2 fold | MMS concentration at and above which clear potentiation of cytotoxicity is seen [2]: ≥ 0.2 mM | cell death ([2]; 20 μM, proinhibitor alone): approximately 45% | DU145 cells surviving treatment [2]: approximately 0.01% | time for conversion of bisacetate to 3a [5]: ≤ 5 min | inhibition of DU145 lysate lyase activity ([3]; 150 μM): Almost complete inhibition | preincubation time by which inactivation was complete ([3]; 18 at 50 μM, preincubation varied 5-60 min): ≤ 15 min | lyase activity inhibition compared with 3a ([3]; 1 h preincubation, FIG. 11): significantly greater | effect on Pol β lyase activity (Pol β lyase activity): had no effect
